The values below come from article PMC10746280, “Bacterial efflux pump modulators prevent bacterial growth in macrophages and under broth conditions that mimic the host environment” (mBio, 2023).

For one assay, the target named is T1, E. coli AcrB (Escherichia coli, UniProt P31224).
T1 construct: 4xHis (C); made in house; host or cells: E. coli BL21-Gold (DE3), plasmid derived from pSPORT1
Briefly: Isothermal titration calorimetry (ITC) binding to purified AcrB. The text has this: We selected three compounds for further study, CU032, CU232, and CU244, because they incorporated different aspects of the parent structure, specifically the negative atoms on the benzene ring and the amine on opposite side of the molecule. To determine whether the EPMs could bind AcrB, we used purified E. coli AcrB, which is 95% identical to S. enterica Typhimurium AcrB. […] Here, we show with ITC that, like EPM35, the three analogs are capable of specifically interacting with AcrB to form complexes (Fig. S1; Table 1). Curiously, the analogs have KDs that are 25- to 50-fold larger than that of EPM35. […] Thus, the EPM analogs interact specifically with AcrB in a manner consistent with established EPM substrates.
AcrB protein was purified as described ([25]). Briefly, the AcrB protein contains a 4×His tag at the C-terminus and was overproduced in E. coli BL21-Gold (DE3) cells (Stratagene) using the plasmid derived from pSPORT1 (Invitrogen) ([79]). Cells were grown in 6 L of LB medium with 100 µg/mL ampicillin and disrupted with a French pressure cell. The membrane fraction was collected and washed twice with buffer containing 20 mM sodium phosphate (pH 7.2), 2 M KCl, 10% glycerol, 1 mM EDTA, and 1 mM phenylmethanesulfonyl fluoride (PMSF), and once with 20 mM HEPES–NaOH buffer (pH 7.5) containing 1 mM PMSF. The membrane proteins were then solubilized in 1% (wt/vol) n-dodecyl β-D-maltoside (DDM). Insoluble material was removed by ultracentrifugation at 370,000 × g. The extracted protein was purified with Cu^2+-affinity and G-200 sizing columns ([13], [80]). The purified AcrB protein was then concentrated to a final monomeric concentration of 10 µM in buffer containing 20 mM Na-HEPES (pH 7.5) and 0.05% DDM. Similar protein purification procedures were extensively used to elucidate structure-function of RND transporters, including AcrB ([13], [16], [25]), CusA ([81], [82]), MtrD ([83], [84]), CmeB ([85]), AdeB ([86]), HpnN ([87]), and MmpL3 ([88]).
Briefly, measurements were performed on a Microcal iTC200 (Malvern Panalytical) at 25°C. Before titration, the protein was dialyzed against buffer containing 20 mM Na-HEPES (pH 7.5), 0.05% […] (DDM), and 5% DMSO ([18]). The Bradford assay was used to quantify protein concentration, which was adjusted to a final monomeric concentration of 10 µM. Ligand solution consisting of 100 µM EPM in the aforementioned buffer was prepared as the titrant. Both the protein and ligand samples were degassed before loading the samples. Two-microliter injections of the ligand were used for data collection. Injections occurred at intervals of 60 s and lasted for 4 s. Heat transfer (µcal/s) was measured as a function of elapsed time (s). The mean enthalpies measured from injection of the ligand in the buffer were subtracted from raw titration data before data analysis with ORIGIN software (MicroCal). Titration curves fitted with a non-linear regression fitting to the binding isotherm provided the equilibrium binding constant (KA = 1/KD) and enthalpy of binding (ΔH). Based on the values of KA, the change in free energy (ΔG) and entropy (ΔS) were calculated with the equation ΔG = −RT lnKA = ΔH − TΔS, where T is […] and R is 1.9872 cal/K per mol. Calorimetry trials were also carried out in the absence of AcrB using the same experimental conditions.
In general terms: Isothermal titration calorimetry measures the heat released or taken up as one component is titrated into another.

In another assay the test system is S. Typhimurium. Briefly: Checkerboard growth assays with antibiotics in LPM 5.5 (FICI and MuSyC analyses). It counts as cell-based. Details: Antibiotic MIC Combination: unit not given here; EPM MIC Combination: unit: µM. The following applies: for log10(α1) [95% CI] (log-fold-change in potency of EPM due to the antibiotic) / log10(α2) [95% CI] (log-fold-change in potency of the antibiotic due to the EPM) / Βobs [95% CI] (proportion increase in maximal efficacy of the antibiotic): MuSyC fit; for Antibiotic MIC Combination / EPM MIC Combination / FICI value: LPM 5.5. On the procedure: To examine whether the EPM analogs interact additively or synergistically with antibiotics, checkerboard growth assays were carried out in LPM 5.5. We compared three antibiotics (ciprofloxacin, doxycycline, erythromycin) and three EPM analogs (CU032, CU187, CU232) and the EPM35 parent compound (Fig. 6A). Standard fractional inhibitory concentration index (FICI) analyses supported synergy between the EPM analogs and ciprofloxacin (Fig. 6B). Since FICI values cannot distinguish between synergy due to changes in potency (activity) versus efficacy (the extent of the effect) ([42], [43]), we used the MuSyC synergy algorithm to measure EPM-antibiotic synergy ([44], [45]). The data were well fit by the MuSyC equation, with an R^2 of greater than 0.96 for all checkerboards (Table S2). […] Moreover, the consistency in the synergy of potency values across the antibiotics with different EPM analogs points toward a shared mechanism of action: the EPMs could modify the pharmacodynamics of the efflux process and prevent export of specific substrates through interactions with AcrB. We posit that the EPMs differentially reduce antibiotic export resulting in a higher effective intracellular concentration of the antibiotic.
Overnight cation-adjusted MHB-grown cultures of SL1344 or SA10801 were diluted in MHB or LPM 5.5 to an optical density at 600 nm (OD600) of 0.01 and distributed into polystyrene 96-well flat-bottom plates. EPM analogs were added at concentrations up to 300 µM, near the limit of solubility. The antibiotics ciprofloxacin, doxycycline, and erythromycin were added up to concentrations of 2 µM, 2 µM, and 8 µM, respectively. The final DMSO concentration was at or below 2% in all wells. Plates were grown at 37°C with shaking for 18 h and OD600 was monitored (BioTek Synergy H1, BioTek Eon). Each experiment was performed with biological triplicate or higher as indicated. Percent growth was determined by normalizing to OD600 reads in wells containing no D66 or antibiotic. Checkerboards in LPM 5.5 medium were performed with culture grown overnight in LB and diluted to an OD600 of 0.01 in LPM 5.5 and compounds/antibiotics were added as previously described. MuSyC analysis was pursued as previously described ([44], [45]). Briefly, the 2D Hill equation was fit to the normalized growth inhibition data from the checkerboards using a bounded non-linear least square regression algorithm. A Monte Carlo sampling method was used to compute the 95% CI in the parameter fits from three biological replicates. The bounds on the parameters minimal and maximal efficacy of the antibiotics and EPMs (E0,Emax) were [0.99,1.01] and [0,1], respectively ([44], [45]).

Setting [1] is: ciprofloxacin (CIPRO) MIC in combination with the EPM.
Where [2] appears, read: doxycycline (DOXY) MIC in combination with the EPM.

T1 sequence (P31224 whole entry): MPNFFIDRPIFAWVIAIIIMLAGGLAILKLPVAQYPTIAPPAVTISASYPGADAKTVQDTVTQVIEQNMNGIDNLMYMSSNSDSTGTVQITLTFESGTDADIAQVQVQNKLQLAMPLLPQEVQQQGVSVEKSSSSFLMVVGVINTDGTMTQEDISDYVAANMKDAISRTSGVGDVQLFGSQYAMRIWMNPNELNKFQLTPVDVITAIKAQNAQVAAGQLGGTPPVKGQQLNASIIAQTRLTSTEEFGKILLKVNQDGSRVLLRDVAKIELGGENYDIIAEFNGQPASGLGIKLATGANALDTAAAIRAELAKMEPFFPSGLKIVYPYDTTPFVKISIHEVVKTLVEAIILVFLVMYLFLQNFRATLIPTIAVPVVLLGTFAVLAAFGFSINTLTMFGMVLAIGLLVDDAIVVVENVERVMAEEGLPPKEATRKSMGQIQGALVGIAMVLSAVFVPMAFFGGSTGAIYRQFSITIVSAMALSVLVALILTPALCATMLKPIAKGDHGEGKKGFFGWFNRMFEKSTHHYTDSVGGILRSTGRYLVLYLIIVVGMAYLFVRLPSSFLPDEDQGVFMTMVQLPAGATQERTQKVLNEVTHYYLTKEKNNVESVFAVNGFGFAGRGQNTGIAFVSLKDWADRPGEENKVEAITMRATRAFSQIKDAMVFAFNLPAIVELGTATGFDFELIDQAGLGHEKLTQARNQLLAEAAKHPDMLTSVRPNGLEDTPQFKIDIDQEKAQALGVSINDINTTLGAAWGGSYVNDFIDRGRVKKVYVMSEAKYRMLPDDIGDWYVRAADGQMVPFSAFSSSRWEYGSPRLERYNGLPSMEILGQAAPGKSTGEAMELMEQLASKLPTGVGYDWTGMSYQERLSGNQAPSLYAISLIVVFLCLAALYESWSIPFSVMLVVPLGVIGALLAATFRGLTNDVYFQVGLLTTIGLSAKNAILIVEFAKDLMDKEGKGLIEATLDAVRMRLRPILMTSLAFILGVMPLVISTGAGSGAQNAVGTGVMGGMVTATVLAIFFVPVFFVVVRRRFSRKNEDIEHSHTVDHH

With `NC1CCN(CC(O)COc2ccc(Cl)c(Cl)c2)C1` (stereo not shown) [CU032], the “∆H” value on E. coli AcrB was −1,947 ± 490 cal/mol. The “∆S” value at E. coli AcrB was 15.60 cal/(mol deg). The entries for the “log10(α1) [95% CI] (log-fold-change in potency of EPM due to the antibiotic)” value with S. Typhimurium (Ciprofloxacin), with S. Typhimurium (Doxycycline) and in the assay with S. Typhimurium (Erythromycin) were 0.0 [-0.42,0.07], -0.06 [-0.3,0.04] and 0.08 [-0.23,0.05], respectively. The “log10(α2) [95% CI] (log-fold-change in potency of the antibiotic due to the EPM)” value in the assay on S. Typhimurium (Ciprofloxacin) was 1.52 [1.32,1.56]; in the assay on S. Typhimurium (Doxycycline), 0.25 [0.17,0.28]; in the assay with S. Typhimurium (Erythromycin) it was 1.11 [0.98,1.11]. Moreover, the “Βobs [95% CI] (proportion increase in maximal efficacy of the antibiotic)” value in the assay on S. Typhimurium (Ciprofloxacin) was 0.07 [0.05,0.1 ]; in the assay on S. Typhimurium (Doxycycline), 0.0 [-0.01,0.01]; in the assay on S. Typhimurium (Erythromycin), 0.04 [0.04,0.07]. Also, the entries for the “Antibiotic MIC Combination” value in the assay on S. Typhimurium (setting [1]) and with S. Typhimurium (setting [2]) were 1 and 2, respectively. Besides, the figures for the “EPM MIC Combination” value with S. Typhimurium (with ciprofloxacin (CIPRO)), in the assay with S. Typhimurium (with doxycycline (DOXY)) and in the assay with S. Typhimurium (with erythromycin (ERY)) were 30, 100 and 100, respectively. Further, the FICI value in the assay with S. Typhimurium (with ciprofloxacin (CIPRO)) worked out at 0.35; in the assay with S. Typhimurium (with doxycycline (DOXY)), 0.55; in the assay on S. Typhimurium (with erythromycin (ERY)), 0.58.

Take `NC1CCN(CC(O)COc2cccc(C(F)(F)F)c2)CC1` (stereo not shown) [CU232]: the “∆H” value at E. coli AcrB is −2,124 ± 93 cal/mol. At E. coli AcrB, the “∆S” value is listed as 16.30 cal/(mol deg). The “log10(α1) [95% CI] (log-fold-change in potency of EPM due to the antibiotic)” value with S. Typhimurium (Ciprofloxacin) was 0.34 [0.18,0.38]; with S. Typhimurium (Doxycycline), 0.14 [-0.23,0.33]; in the assay on S. Typhimurium (Erythromycin), -0.02 [-0.35,-0.05]. Also, the “log10(α2) [95% CI] (log-fold-change in potency of the antibiotic due to the EPM)” value in the assay on S. Typhimurium (Ciprofloxacin) is 1.87 [1.73,1.85]; in the assay on S. Typhimurium (Doxycycline), 0.16 [0.06,0.19]; with S. Typhimurium (Erythromycin) it was 1.38 [1.11,1.44]. The “Βobs [95% CI] (proportion increase in maximal efficacy of the antibiotic)” value with S. Typhimurium (Ciprofloxacin) is 0.0 [-0.02,0.03]; in the assay on S. Typhimurium (Doxycycline), 0.02 [-0.01,0.02]; with S. Typhimurium (Erythromycin) it was 0.06 [0.05,0.07]. The entries for the “Antibiotic MIC Combination” value in the assay on S. Typhimurium (setting [1]) and in the assay on S. Typhimurium (setting [2]) were 1 and 2, respectively. The figures for the “EPM MIC Combination” value with S. Typhimurium (with ciprofloxacin (CIPRO)), with S. Typhimurium (with doxycycline (DOXY)) and in the assay on S. Typhimurium (with erythromycin (ERY)) were 44, 100 and 100, respectively. The FICI value in the assay with S. Typhimurium (with ciprofloxacin (CIPRO)) was determined as 0.4; in the assay with S. Typhimurium (with doxycycline (DOXY)), 0.58; in the assay with S. Typhimurium (with erythromycin (ERY)), 0.58.

On to `OC(CN[C@H]1[C@@H]2CNC[C@@H]21)COc1cc(Cl)cc(Cl)c1` (stereo partly shown) [CU244], for which, at E. coli AcrB, the “∆H” value was −8,654 ± 1,384 cal/mol and the “∆S” value is −6.91 cal/(mol deg).

With `OC(COc1ccc(Cl)c(Cl)c1)CN1CCC(Nc2nccc(C(F)(F)F)n2)CC1` (stereo not shown) [EPM35], the “log10(α1) [95% CI] (log-fold-change in potency of EPM due to the antibiotic)” value in the assay with S. Typhimurium (Ciprofloxacin) is 0.58 [0.17,0.77]; in the assay on S. Typhimurium (Doxycycline), 0.7 [0.41,0.87]; in the assay on S. Typhimurium (Erythromycin) it was 0.49 [0.15,0.74]. The “log10(α2) [95% CI] (log-fold-change in potency of the antibiotic due to the EPM)” value in the assay on S. Typhimurium (Ciprofloxacin) was -0.12 [-0.22,0.03]; in the assay on S. Typhimurium (Doxycycline), 0.43 [0.31,0.39]; in the assay with S. Typhimurium (Erythromycin) it was -0.01 [-0.06,0.03]. For the same compound, the “Βobs [95% CI] (proportion increase in maximal efficacy of the antibiotic)” value was 0.01 [-0.01,0.01] with S. Typhimurium (Ciprofloxacin), -0.01 [-0.04,-0.01] in the assay on S. Typhimurium (Doxycycline) and 0.01 [-0.01,0.01] in the assay with S. Typhimurium (Erythromycin). For the same compound, the synergy with antibiotics entry in the assay with S. Typhimurium (checkerboards in LPM 5.5) is “did not synergize with the antibiotics”. In addition, the “Antibiotic MIC Combination” value was found to be 1 in the assay on S. Typhimurium (setting [1]) and 2 in the assay on S. Typhimurium (setting [2]). In addition, the “EPM MIC Combination” value in the assay on S. Typhimurium (with ciprofloxacin (CIPRO)), in the assay on S. Typhimurium (with doxycycline (DOXY)) and in the assay on S. Typhimurium (with erythromycin (ERY)) was 150 in each case. Besides, the FICI value with S. Typhimurium (with ciprofloxacin (CIPRO)) is on record as 0.7; in the assay on S. Typhimurium (with doxycycline (DOXY)) it was 1; with S. Typhimurium (with erythromycin (ERY)) it was 1.
